Our source for the EC50 values is patent publication US11541028B2, “Peptide pharmaceuticals for treatment of NASH and other disorders” (Mederis Diabetes LLC, priority 2018, dated 2023).

A word on the EC50: it is the concentration at which the effect is half-maximal.

One test deals with T1, human GLP-1 receptor (Homo sapiens, UniProt P43220).
T1 construct: host or cells: CHO cells
Description: DiscoveRx LeadHunter cellular assay, cAMP stimulation, GLP-1 receptor in CHO cells. The test is classed as cell-based. To be noted: human GLP-1 receptor in CHO cells (DiscoveRx); read-out: EC50 cAMP GLP-1 R.

Another test has as its target T2, human glucagon receptor (Homo sapiens, UniProt P47871).
T2 construct: host or cells: CHO cells
Briefly: DiscoveRx LeadHunter cellular assay, cAMP stimulation, glucagon receptor in CHO cells. Type of test: cell-based.

Setting [1] is: read-out: EC50 cAMP Glucagon R, human glucagon receptor in CHO cells (DiscoveRx).

Where two headings read alike, the source gives them in different places.

T1 sequence (P43220 24-463): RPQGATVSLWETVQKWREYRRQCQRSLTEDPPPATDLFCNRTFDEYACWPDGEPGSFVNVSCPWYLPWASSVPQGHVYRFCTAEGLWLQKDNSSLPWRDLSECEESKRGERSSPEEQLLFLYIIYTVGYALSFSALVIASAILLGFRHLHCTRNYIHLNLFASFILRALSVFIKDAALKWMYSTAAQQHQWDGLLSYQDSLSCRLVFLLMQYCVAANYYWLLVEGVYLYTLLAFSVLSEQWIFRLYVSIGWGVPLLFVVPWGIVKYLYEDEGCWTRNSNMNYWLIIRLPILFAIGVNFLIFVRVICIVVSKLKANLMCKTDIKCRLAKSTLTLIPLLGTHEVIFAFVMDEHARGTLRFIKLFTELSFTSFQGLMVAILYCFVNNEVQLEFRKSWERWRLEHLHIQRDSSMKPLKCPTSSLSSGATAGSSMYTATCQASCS
T2 sequence (P47871 26-477): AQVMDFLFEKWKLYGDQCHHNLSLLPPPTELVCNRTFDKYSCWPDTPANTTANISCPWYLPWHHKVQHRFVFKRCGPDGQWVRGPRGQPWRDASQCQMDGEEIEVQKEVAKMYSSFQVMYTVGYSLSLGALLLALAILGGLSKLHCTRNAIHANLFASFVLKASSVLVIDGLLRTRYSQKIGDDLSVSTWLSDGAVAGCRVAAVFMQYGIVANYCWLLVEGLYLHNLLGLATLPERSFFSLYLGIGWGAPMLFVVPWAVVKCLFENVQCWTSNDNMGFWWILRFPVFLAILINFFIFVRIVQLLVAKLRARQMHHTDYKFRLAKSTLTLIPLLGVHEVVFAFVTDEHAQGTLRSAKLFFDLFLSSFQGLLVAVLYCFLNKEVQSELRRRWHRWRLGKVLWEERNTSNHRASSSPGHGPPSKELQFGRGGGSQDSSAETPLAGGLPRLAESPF
Description for human GLP-1 receptor: (§1) A further series of cellular assays was carried out with standard cellular assays (DiscoveRx, LeadHunter assays) using readout of cAMP stimulation or arrestin activation. Compounds were weighed precisely in an amount of about 1 mg and shipped to DiscoveRx for dilution and assay.
Description for human glucagon receptor: as §1

For `CCCCCCCCCCCCO[C@@H]1O[C@H](C(=O)NCCCC[C@H](N)C(=O)NCCCC[C@H](NC(=O)[C@@H](NC(=O)[C@H](Cc2ccccc2)NC(=O)[C@H](CCC(=O)O)NC(=O)[C@@H]2CCCCNC(=O)CC[C@H](NC(=O)[C@H](CC(=O)O)NC(=O)[C@H](CC(C)C)NC(=O)[C@H](Cc3ccc(O)cc3)NC(=O)[C@H](CCCCN)NC(=O)[C@H](CO)NC(=O)[C@H](Cc3ccc(O)cc3)NC(=O)[C@H](CC(=O)O)NC(=O)[C@H](CO)NC(=O)[C@@H](NC(=O)[C@H](Cc3ccccc3)NC(=O)[C@@H](NC(=O)CNC(=O)[C@H](CCC(N)=O)NC(=O)C(C)(C)NC(=O)[C@@H](N)Cc3c[nH]cn3)[C@@H](C)O)[C@@H](C)O)C(=O)N[C@@H](CCC(N)=O)C(=O)N[C@@H](C)C(=O)N[C@@H](C)C(=O)N2)[C@@H](C)CC)C(=O)N[C@@H](Cc2c[nH]c3ccccc23)C(=O)N[C@@H](CC(C)C)C(=O)N[C@@H](CC(C)C)C(=O)N[C@@H](CCC(N)=O)C(=O)N[C@H](C(N)=O)[C@@H](C)O)[C@@H](O)[C@H](O)[C@H]1O` [EU-A1711], the EC50 was determined as 0.009 nM at human GLP-1 receptor and 0.026 nM at human glucagon receptor.

`CCCCCCCCCCCCCCO[C@@H]1O[C@H](C(=O)NCCCC[C@H](N)C(=O)NCCCC[C@H](NC(=O)[C@@H](NC(=O)[C@H](Cc2ccccc2)NC(=O)[C@H](CCC(=O)O)NC(=O)[C@@H]2CCCCNC(=O)CC[C@H](NC(=O)[C@H](CC(=O)O)NC(=O)[C@H](CC(C)C)NC(=O)[C@H](Cc3ccc(O)cc3)NC(=O)[C@H](CCCCN)NC(=O)[C@H](CO)NC(=O)[C@H](Cc3ccc(O)cc3)NC(=O)[C@H](CC(=O)O)NC(=O)[C@H](CO)NC(=O)[C@@H](NC(=O)[C@H](Cc3ccccc3)NC(=O)[C@@H](NC(=O)CNC(=O)[C@H](CCC(N)=O)NC(=O)C(C)(C)NC(=O)[C@@H](N)Cc3c[nH]cn3)[C@@H](C)O)[C@@H](C)O)C(=O)N[C@@H](CCC(N)=O)C(=O)N[C@@H](C)C(=O)N[C@@H](C)C(=O)N2)[C@@H](C)CC)C(=O)N[C@@H](Cc2c[nH]c3ccccc23)C(=O)N[C@@H](CC(C)C)C(=O)N[C@@H](CC(C)C)C(=O)N[C@@H](CCC(N)=O)C(=O)N[C@H](C(N)=O)[C@@H](C)O)[C@@H](O)[C@H](O)[C@H]1O` [EU-A1712]: the figures for the EC50 on human GLP-1 receptor and on human glucagon receptor (setting [1]) were 0.037 nM and 0.175 nM, respectively.

For `CCCCCCCCCCCCCCCCO[C@@H]1O[C@H](C(=O)NCCCC[C@H](N)C(=O)NCCCC[C@H](NC(=O)[C@@H](NC(=O)[C@H](Cc2ccccc2)NC(=O)[C@H](CCC(=O)O)NC(=O)[C@@H]2CCCCNC(=O)CC[C@H](NC(=O)[C@H](CC(=O)O)NC(=O)[C@H](CC(C)C)NC(=O)[C@H](Cc3ccc(O)cc3)NC(=O)[C@H](CCCCN)NC(=O)[C@H](CO)NC(=O)[C@H](Cc3ccc(O)cc3)NC(=O)[C@H](CC(=O)O)NC(=O)[C@H](CO)NC(=O)[C@@H](NC(=O)[C@H](Cc3ccccc3)NC(=O)[C@@H](NC(=O)CNC(=O)[C@H](CCC(N)=O)NC(=O)C(C)(C)NC(=O)[C@@H](N)Cc3c[nH]cn3)[C@@H](C)O)[C@@H](C)O)C(=O)N[C@@H](CCC(N)=O)C(=O)N[C@@H](C)C(=O)N[C@@H](C)C(=O)N2)[C@@H](C)CC)C(=O)N[C@@H](Cc2c[nH]c3ccccc23)C(=O)N[C@@H](CC(C)C)C(=O)N[C@@H](CC(C)C)C(=O)N[C@@H](CCC(N)=O)C(=O)N[C@H](C(N)=O)[C@@H](C)O)[C@@H](O)[C@H](O)[C@H]1O` [EU-A1713], the figures for the EC50 at human GLP-1 receptor and on human glucagon receptor were 0.308 nM and 2.51 nM, respectively.

In the case of `CCCCCCCCCCO[C@@H]1O[C@H](C(=O)N[C@@H](CCC(=O)NCCCC[C@H](NC(=O)[C@@H](NC(=O)[C@H](Cc2ccccc2)NC(=O)[C@H](CCC(=O)O)NC(=O)[C@@H]2CCCCNC(=O)CC[C@H](NC(=O)[C@H](CC(=O)O)NC(=O)[C@H](CC(C)C)NC(=O)[C@H](Cc3ccc(O)cc3)NC(=O)[C@H](CCCCN)NC(=O)[C@H](CO)NC(=O)[C@H](Cc3ccc(O)cc3)NC(=O)[C@H](CC(=O)O)NC(=O)[C@H](CO)NC(=O)[C@@H](NC(=O)[C@H](Cc3ccccc3)NC(=O)[C@@H](NC(=O)CNC(=O)[C@H](CCC(N)=O)NC(=O)C(C)(C)NC(=O)[C@@H](N)Cc3c[nH]cn3)[C@@H](C)O)[C@@H](C)O)C(=O)N[C@@H](CCC(N)=O)C(=O)N[C@@H](C)C(=O)N[C@@H](C)C(=O)N2)[C@@H](C)CC)C(=O)N[C@@H](Cc2c[nH]c3ccccc23)C(=O)N[C@@H](CC(C)C)C(=O)N[C@@H](CC(C)C)C(=O)N[C@@H](CCC(N)=O)C(=O)N[C@H](C(N)=O)[C@@H](C)O)C(=O)O)[C@@H](O)[C@H](O)[C@H]1O` [EU-A1716], the EC50 on human GLP-1 receptor was determined as 0.013 nM; on human glucagon receptor, 0.032 nM.

Consider `CCCCCCCCCCCCO[C@@H]1O[C@H](C(=O)N[C@@H](CCC(=O)NCCCC[C@H](NC(=O)[C@@H](NC(=O)[C@H](Cc2ccccc2)NC(=O)[C@H](CCC(=O)O)NC(=O)[C@@H]2CCCCNC(=O)CC[C@H](NC(=O)[C@H](CC(=O)O)NC(=O)[C@H](CC(C)C)NC(=O)[C@H](Cc3ccc(O)cc3)NC(=O)[C@H](CCCCN)NC(=O)[C@H](CO)NC(=O)[C@H](Cc3ccc(O)cc3)NC(=O)[C@H](CC(=O)O)NC(=O)[C@H](CO)NC(=O)[C@@H](NC(=O)[C@H](Cc3ccccc3)NC(=O)[C@@H](NC(=O)CNC(=O)[C@H](CCC(N)=O)NC(=O)C(C)(C)NC(=O)[C@@H](N)Cc3c[nH]cn3)[C@@H](C)O)[C@@H](C)O)C(=O)N[C@@H](CCC(N)=O)C(=O)N[C@@H](C)C(=O)N[C@@H](C)C(=O)N2)[C@@H](C)CC)C(=O)N[C@@H](Cc2c[nH]c3ccccc23)C(=O)N[C@@H](CC(C)C)C(=O)N[C@@H](CC(C)C)C(=O)N[C@@H](CCC(N)=O)C(=O)N[C@H](C(N)=O)[C@@H](C)O)C(=O)O)[C@@H](O)[C@H](O)[C@H]1O` [EU-A1717], for which the EC50 worked out at 0.011 nM on human GLP-1 receptor and 0.035 nM at human glucagon receptor.

As for `CCCCCCCCCCCCCCO[C@@H]1O[C@H](C(=O)N[C@@H](CCC(=O)NCCCC[C@H](NC(=O)[C@@H](NC(=O)[C@H](Cc2ccccc2)NC(=O)[C@H](CCC(=O)O)NC(=O)[C@@H]2CCCCNC(=O)CC[C@H](NC(=O)[C@H](CC(=O)O)NC(=O)[C@H](CC(C)C)NC(=O)[C@H](Cc3ccc(O)cc3)NC(=O)[C@H](CCCCN)NC(=O)[C@H](CO)NC(=O)[C@H](Cc3ccc(O)cc3)NC(=O)[C@H](CC(=O)O)NC(=O)[C@H](CO)NC(=O)[C@@H](NC(=O)[C@H](Cc3ccccc3)NC(=O)[C@@H](NC(=O)CNC(=O)[C@H](CCC(N)=O)NC(=O)C(C)(C)NC(=O)[C@@H](N)Cc3c[nH]cn3)[C@@H](C)O)[C@@H](C)O)C(=O)N[C@@H](CCC(N)=O)C(=O)N[C@@H](C)C(=O)N[C@@H](C)C(=O)N2)[C@@H](C)CC)C(=O)N[C@@H](Cc2c[nH]c3ccccc23)C(=O)N[C@@H](CC(C)C)C(=O)N[C@@H](CC(C)C)C(=O)N[C@@H](CCC(N)=O)C(=O)N[C@H](C(N)=O)[C@@H](C)O)C(=O)O)[C@@H](O)[C@H](O)[C@H]1O` [EU-A1718], the EC50 on human GLP-1 receptor was 0.043 nM; on human glucagon receptor (setting [1]), 0.097 nM.

As for `CCCCCCCCCCCCCCCCO[C@@H]1O[C@H](C(=O)N[C@@H](CCC(=O)NCCCC[C@H](NC(=O)[C@@H](NC(=O)[C@H](Cc2ccccc2)NC(=O)[C@H](CCC(=O)O)NC(=O)[C@@H]2CCCCNC(=O)CC[C@H](NC(=O)[C@H](CC(=O)O)NC(=O)[C@H](CC(C)C)NC(=O)[C@H](Cc3ccc(O)cc3)NC(=O)[C@H](CCCCN)NC(=O)[C@H](CO)NC(=O)[C@H](Cc3ccc(O)cc3)NC(=O)[C@H](CC(=O)O)NC(=O)[C@H](CO)NC(=O)[C@@H](NC(=O)[C@H](Cc3ccccc3)NC(=O)[C@@H](NC(=O)CNC(=O)[C@H](CCC(N)=O)NC(=O)C(C)(C)NC(=O)[C@@H](N)Cc3c[nH]cn3)[C@@H](C)O)[C@@H](C)O)C(=O)N[C@@H](CCC(N)=O)C(=O)N[C@@H](C)C(=O)N[C@@H](C)C(=O)N2)[C@@H](C)CC)C(=O)N[C@@H](Cc2c[nH]c3ccccc23)C(=O)N[C@@H](CC(C)C)C(=O)N[C@@H](CC(C)C)C(=O)N[C@@H](CCC(N)=O)C(=O)N[C@H](C(N)=O)[C@@H](C)O)C(=O)O)[C@@H](O)[C@H](O)[C@H]1O` [EU-A1719], the EC50 was 0.095 nM at human GLP-1 receptor and 0.746 nM on human glucagon receptor.

On to `CCCCCCCCCCO[C@@H]1O[C@H](C(=O)N[C@@H](CCC(=O)N[C@@H](CCC(=O)NCCCC[C@H](NC(=O)[C@@H](NC(=O)[C@H](Cc2ccccc2)NC(=O)[C@H](CCC(=O)O)NC(=O)[C@@H]2CCCCNC(=O)CC[C@H](NC(=O)[C@H](CC(=O)O)NC(=O)[C@H](CC(C)C)NC(=O)[C@H](Cc3ccc(O)cc3)NC(=O)[C@H](CCCCN)NC(=O)[C@H](CO)NC(=O)[C@H](Cc3ccc(O)cc3)NC(=O)[C@H](CC(=O)O)NC(=O)[C@H](CO)NC(=O)[C@@H](NC(=O)[C@H](Cc3ccccc3)NC(=O)[C@@H](NC(=O)CNC(=O)[C@H](CCC(N)=O)NC(=O)C(C)(C)NC(=O)[C@@H](N)Cc3c[nH]cn3)[C@@H](C)O)[C@@H](C)O)C(=O)N[C@@H](CCC(N)=O)C(=O)N[C@@H](C)C(=O)N[C@@H](C)C(=O)N2)[C@@H](C)CC)C(=O)N[C@@H](Cc2c[nH]c3ccccc23)C(=O)N[C@@H](CC(C)C)C(=O)N[C@@H](CC(C)C)C(=O)N[C@@H](CCC(N)=O)C(=O)N[C@H](C(N)=O)[C@@H](C)O)C(=O)O)C(=O)O)[C@@H](O)[C@H](O)[C@H]1O` [EU-A1722], for which the results for the 50% effective concentration (EC50) at human GLP-1 receptor and on human glucagon receptor were 0.006 nM and 0.012 nM, respectively.

With `CCCCCCCCCCCCO[C@@H]1O[C@H](C(=O)N[C@@H](CCC(=O)N[C@@H](CCC(=O)NCCCC[C@H](NC(=O)[C@@H](NC(=O)[C@H](Cc2ccccc2)NC(=O)[C@H](CCC(=O)O)NC(=O)[C@@H]2CCCCNC(=O)CC[C@H](NC(=O)[C@H](CC(=O)O)NC(=O)[C@H](CC(C)C)NC(=O)[C@H](Cc3ccc(O)cc3)NC(=O)[C@H](CCCCN)NC(=O)[C@H](CO)NC(=O)[C@H](Cc3ccc(O)cc3)NC(=O)[C@H](CC(=O)O)NC(=O)[C@H](CO)NC(=O)[C@@H](NC(=O)[C@H](Cc3ccccc3)NC(=O)[C@@H](NC(=O)CNC(=O)[C@H](CCC(N)=O)NC(=O)C(C)(C)NC(=O)[C@@H](N)Cc3c[nH]cn3)[C@@H](C)O)[C@@H](C)O)C(=O)N[C@@H](CCC(N)=O)C(=O)N[C@@H](C)C(=O)N[C@@H](C)C(=O)N2)[C@@H](C)CC)C(=O)N[C@@H](Cc2c[nH]c3ccccc23)C(=O)N[C@@H](CC(C)C)C(=O)N[C@@H](CC(C)C)C(=O)N[C@@H](CCC(N)=O)C(=O)N[C@H](C(N)=O)[C@@H](C)O)C(=O)O)C(=O)O)[C@@H](O)[C@H](O)[C@H]1O` [EU-A1723], the EC50 was found to be 0.028 nM at human GLP-1 receptor and 0.062 nM at human glucagon receptor.
